Data published in patent US9283256B2, “Antibacterial composition comprising Salvia extracts” (Botanic Century (Beijing) Co. Ltd., priority 2007, dated 2016).
Values after ≈ are worked out from the molar mass of the structure shown. Read-outs that look alike come from different tables or passages of the source.

Key:
Staphylococcus aureus = settings: filter paper disc, chemicals isolated from Danshen; cited from earlier work
MRSA 98 = experiment: MIC and MBC by microtitre well methods, PYN6 versus individual compounds (TEST 1); type: cell-based, Staphylococcus aureus
Method: (§1) Minimum Inhibitory and Minimum Bactericidal activities (MIC and MBC) of PYN6 were determined for 2 strains of MRSA using standard microtitre well methods. MICs were determined by measuring growth over 20 hrs using spectroscopy at 490 nm. MBCs were determined by subculture from these microtitre plates onto solid media after 20 hrs and determining survival of bacteria grown in the presence of PYN6.
TEST 1 MIC and MBC comparing PYN6 to A, B, C and D against MRSA 98

MRSA 2 = experiment: MIC and MBC by microtitre well methods, PYN6 versus individual compounds (TEST 2); type: cell-based, Staphylococcus aureus; settings: for MIC: microtitre well, growth over 20 hrs, 490 nm; for MBC: subculture onto solid media after 20 hrs
Method: as §1
TEST 2 MIC and MBC comparing PYN6 to A, B, C and D against MRSA 2

[1] = tested on: clinical isolates of MRSA (T3, 102, MRSA 99); type: cell-based, Staphylococcus aureus; settings: sub-inhibitory sub-culture, 3 week test period
Method: This experiment was conducted to test for the rapid development of resistance in Staphylococcus aureus in the presence of sub-inhibitory doses of the active extract.
All clinical strains were from The Royal London, St Bartholomew's or Newham hospitals in London. Each strain had been identified as an MRSA.
High concentrations of organisms (10^7cfu/ml^−1) were grown in sub-inhibitory concentrations 0, 2 and 8 mg l^−1 of the active extract.
Organisms were sub-cultured into fresh active extract media at day 4 and again at day 7. MICs were checked weekly using standard methods. Subcultures were carried out in triplicate.

Escherichia coli = settings: dissolved in dimethylformamide (DMF); cited from earlier work
[2] = tested on: Staphylococcus aureus ATCC225923; settings: dissolved in dimethylformamide (DMF); cited from earlier work
[3] = tested on: Bacillus aeruginosus ATCC227853; settings: dissolved in dimethylformamide (DMF); cited from earlier work
Haemolytic streptococcus = settings: dissolved in dimethylformamide (DMF); cited from earlier work
[4] = dissolved in chloroform; cited from earlier work
[5] = Staphylococcus aureus, MRSA, 20 h
[6] = Staphylococcus aureus, read-out: MIC
[7] = Staphylococcus aureus, read-out: MBC
[8] = TEST 1, MRSA 98, microtitre well, growth over 20 hrs, 490 nm
[9] = TEST 1, MRSA 98, subculture onto solid media after 20 hrs

neotanshinone C
anti-Staphylococcus aureus activity (Staphylococcus aureus): did not show activity

C[C@H]1COC2=C1C(=O)C(=O)c1c2ccc2c1CCCC2(C)C [D, Cryptotashinone]
MBC (MRSA 98; [5]): 250 µg/mL (≈ 844 µM)
MIC (MRSA 98; [5]): 15 µg/mL (≈ 50.6 µM)
MIC (MRSA 2; [6]): 7.7 µg/mL (≈ 26 µM)
MBC (MRSA 2; [7]): 125 µg/mL (≈ 422 µM)

Gentamicin
development of resistance [1]: no development of resistance

Cc1coc2c1C(=O)C(=O)c1c-2ccc2c(C)cccc12 [A, Tashinone 1]
MIC (MRSA 98; [8]): 125 µg/mL (≈ 452 µM)
MBC (MRSA 98; [9]): <500 µg/mL
MIC (MRSA 2): 125 µg/mL (≈ 452 µM)
MBC (MRSA 2): >500 µg/mL
anti-Staphylococcus aureus activity (Staphylococcus aureus): did not show activity

Cc1coc2c1C(=O)C(=O)c1c-2ccc2c1CCCC2(C)CO (stereo not drawn) [Tanshinone IIB]
anti-Staphylococcus aureus activity (Staphylococcus aureus): demonstrated anti-Staphylococcus aureus activity
minimum inhibitory concentration (MIC) (Escherichia coli): 25 µg/mL (≈ 80.6 µM)
MIC [2]: 50 µg/mL (≈ 161 µM)
MIC [3]: 25 µg/mL (≈ 80.6 µM)
MIC (Haemolytic streptococcus): 25 µg/mL (≈ 80.6 µM)

Cc1cccc2c3c(ccc12)C1=C(C(=O)C3=O)[C@@H](C)CO1 [C, Dyhydrotashinone]
MIC (MRSA 98; [8]): 8 µg/mL (≈ 28.7 µM)
MBC (MRSA 98; [9]): 125 µg/mL (≈ 449 µM)
MIC (MRSA 2): 1.8 µg/mL (≈ 6.47 µM)
MBC (MRSA 2): 62 µg/mL (≈ 223 µM)
anti-Staphylococcus aureus activity (Staphylococcus aureus): demonstrated anti-Staphylococcus aureus activity

neotanshinone A
anti-Staphylococcus aureus activity (Staphylococcus aureus): did not show activity

Cc1coc2c1C(=O)C(=O)c1c-2ccc2c1CCCC2(C)C [B, Tashinone 11A]
MIC (MRSA 98; Staphylococcus aureus, TEST 1, MRSA 98, microtitre well, growth over 20 hrs, 490 nm, read-out: MIC): 125 µg/mL (≈ 425 µM)
MBC (MRSA 98; Staphylococcus aureus, TEST 1, MRSA 98, subculture onto solid media after 20 hrs, read-out: MBC): < 500 µg/mL
MIC (MRSA 2; [6]): 125 µg/mL (≈ 425 µM)
MBC (MRSA 2; [7]): > 500 µg/mL
anti-Staphylococcus aureus activity (Staphylococcus aureus): did not show activity
minimum inhibitory concentration (MIC) (Escherichia coli): 50 µg/mL (≈ 170 µM)
MIC [2]: 100 µg/mL (≈ 340 µM)
MIC [3]: 50 µg/mL (≈ 170 µM)
MIC (Haemolytic streptococcus): 121.5 µg/mL (≈ 413 µM)
anti-microbial activity [4]: did not demonstrate any anti-microbial activity

neotanshinone B
anti-Staphylococcus aureus activity (Staphylococcus aureus): did not show activity
